Values belong to the compound of their own block, whether it stands above or below them. The source made the active and inactive calls. The calls are words filed in the database; no cut-off is given here.
Key:
[1] = molecular target: Histamine H3 receptor (Homo sapiens) (UniProt Q9Y5N1); conditions: Compound concentration 10.0 uM
[2] = molecular target: Delta-type opioid receptor (Homo sapiens) (UniProt P41143); conditions: Compound concentration 10.0 uM
[3] = molecular target: T1, GABA-A receptor; anion channel (Rattus norvegicus) (UniProt O09028+P15431+P18506+P18508+P19969+P20236+P23574+P23576+P28471+P28473+P30191+P62813+P63079+P63138+Q91ZM7+Q9ES14); conditions: Compound concentration 10.0 uM
[4] = molecular target: 5-hydroxytryptamine receptor 2A (Homo sapiens, UniProt P28223); conditions: Compound concentration 10.0 uM
[5] = molecular target: 5-hydroxytryptamine receptor 2C (Homo sapiens) (UniProt P28335); conditions: Compound concentration 10.0 uM
[6] = molecular target: Alpha-1A adrenergic receptor (Homo sapiens) (UniProt P35348); conditions: Compound concentration 10.0 uM
[7] = molecular target: 5-hydroxytryptamine receptor 2B (Homo sapiens) (UniProt P41595); conditions: Compound concentration 10.0 uM
[8] = molecular target: D(4) dopamine receptor (Homo sapiens) (UniProt P21917); conditions: Compound concentration 10.0 uM
[9] = molecular target: Muscarinic acetylcholine receptor M2 (Homo sapiens) (UniProt P08172); conditions: Compound concentration 10.0 uM
[10] = molecular target: 5-hydroxytryptamine receptor 7 (Homo sapiens) (UniProt P34969); conditions: Compound concentration 10.0 uM
[11] = molecular target: Alpha-2B adrenergic receptor (Homo sapiens) (UniProt P18089); conditions: Compound concentration 10.0 uM
[12] = molecular target: Dual specificity protein kinase CLK1 (Homo sapiens, UniProt P49759); assay: NanoBRET (SGC Frankfurt) (CLK1)
[13] = molecular target: Receptor-type tyrosine-protein kinase FLT3 (Homo sapiens, UniProt P36888); assay: NanoBRET (SGC Frankfurt) (FLT3)
[14] = molecular target: Muscarinic acetylcholine receptor M3 (Homo sapiens) (UniProt P20309); conditions: Compound concentration 10.0 uM
[15] = molecular target: Beta-2 adrenergic receptor (Homo sapiens) (UniProt P07550); conditions: Compound concentration 10.0 uM
[16] = molecular target: 5-hydroxytryptamine receptor 1D (Homo sapiens, UniProt P28221); conditions: Compound concentration 10.0 uM
D(1A) dopamine receptor = D(1A) dopamine receptor (Homo sapiens, UniProt P21728); conditions: Compound concentration 10.0 uM
D(2) dopamine receptor = D(2) dopamine receptor (Homo sapiens, UniProt P14416); conditions: Compound concentration 10.0 uM
[17] = molecular target: Alpha-1B adrenergic receptor (Homo sapiens) (UniProt P35368); conditions: Compound concentration 10.0 uM
[18] = molecular target: 5-hydroxytryptamine receptor 5A (Homo sapiens, UniProt P47898); conditions: Compound concentration 10.0 uM
[19] = molecular target: Histamine H4 receptor (Homo sapiens) (UniProt Q9H3N8); conditions: Compound concentration 10.0 uM
[20] = molecular target: Sodium-dependent serotonin transporter (Homo sapiens) (UniProt P31645); conditions: Compound concentration 10.0 uM
[21] = molecular target: Muscarinic acetylcholine receptor M4 (Homo sapiens) (UniProt P08173); conditions: Compound concentration 10.0 uM
[22] = molecular target: Serine/threonine-protein kinase SIK2 (Homo sapiens, UniProt Q9H0K1); assay: NanoBRET (SGC Frankfurt) (SIK2)
[23] = molecular target: Alpha-2A adrenergic receptor (Homo sapiens) (UniProt P08913); conditions: Compound concentration 10.0 uM
[24] = molecular target: Receptor-type tyrosine-protein kinase FLT3 (Homo sapiens, UniProt P36888, D835V); assay: NanoBRET (SGC Frankfurt) (FLT3 (D835V))
[25] = molecular target: Sodium-dependent dopamine transporter (Homo sapiens) (UniProt Q01959); conditions: Compound concentration 10.0 uM
[26] = molecular target: Sigma non-opioid intracellular receptor 1 (Homo sapiens, UniProt Q99720); conditions: Compound concentration 10.0 uM
[27] = molecular target: T1, GABA-A receptor; anion channel (Rattus norvegicus); conditions: Compound concentration 10.0 uM; remark: listed apart in the source
[28] = molecular target: Beta-1 adrenergic receptor (Homo sapiens) (UniProt P08588); conditions: Compound concentration 10.0 uM
[29] = molecular target: Dual specificity tyrosine-phosphorylation-regulated kinase 1A (Homo sapiens, UniProt Q13627); assay: NanoBRET (SGC Frankfurt) (DYRK1A)
[30] = molecular target: Muscarinic acetylcholine receptor M5 (Homo sapiens) (UniProt P08912); conditions: Compound concentration 10.0 uM
[31] = molecular target: 5-hydroxytryptamine receptor 3A (Homo sapiens) (UniProt P46098); conditions: Compound concentration 10.0 uM
[32] = molecular target: Sigma intracellular receptor 2 (Homo sapiens, UniProt Q5BJF2); conditions: Compound concentration 10.0 uM
[33] = molecular target: Alpha-2C adrenergic receptor (Homo sapiens) (UniProt P18825); conditions: Compound concentration 10.0 uM
[34] = molecular target: 5-hydroxytryptamine receptor 1B (Homo sapiens, UniProt P28222); conditions: Compound concentration 10.0 uM
[35] = molecular target: Sodium-dependent noradrenaline transporter (Homo sapiens) (UniProt P23975); conditions: Compound concentration 10.0 uM
[36] = molecular target: D(1B) dopamine receptor (Homo sapiens) (UniProt P21918); conditions: Compound concentration 10.0 uM
Mu-type opioid receptor = Mu-type opioid receptor (Homo sapiens, UniProt P35372); conditions: Compound concentration 10.0 uM
D(3) dopamine receptor = D(3) dopamine receptor (Homo sapiens, UniProt P35462); conditions: Compound concentration 10.0 uM
[37] = molecular target: Dual specificity tyrosine-phosphorylation-regulated kinase 1B (Homo sapiens, UniProt Q9Y463); assay: NanoBRET (SGC Frankfurt) (DYRK1B)
Histamine H1 receptor [38] = molecular target: T2, Histamine H1 receptor (Homo sapiens, UniProt P35367); conditions: Compound concentration 10.0 uM
[39] = molecular target: Kappa-type opioid receptor (Homo sapiens, UniProt P41145); conditions: Compound concentration 10.0 uM
Histamine H1 receptor [40] = molecular target: T2, Histamine H1 receptor; assay: GPCRScan assay: inhibition of H1; set-up: radioligand conc. used [nm] 0.6 – 2.0, parental cells stable HEK

T2 sequence (P35367 whole entry): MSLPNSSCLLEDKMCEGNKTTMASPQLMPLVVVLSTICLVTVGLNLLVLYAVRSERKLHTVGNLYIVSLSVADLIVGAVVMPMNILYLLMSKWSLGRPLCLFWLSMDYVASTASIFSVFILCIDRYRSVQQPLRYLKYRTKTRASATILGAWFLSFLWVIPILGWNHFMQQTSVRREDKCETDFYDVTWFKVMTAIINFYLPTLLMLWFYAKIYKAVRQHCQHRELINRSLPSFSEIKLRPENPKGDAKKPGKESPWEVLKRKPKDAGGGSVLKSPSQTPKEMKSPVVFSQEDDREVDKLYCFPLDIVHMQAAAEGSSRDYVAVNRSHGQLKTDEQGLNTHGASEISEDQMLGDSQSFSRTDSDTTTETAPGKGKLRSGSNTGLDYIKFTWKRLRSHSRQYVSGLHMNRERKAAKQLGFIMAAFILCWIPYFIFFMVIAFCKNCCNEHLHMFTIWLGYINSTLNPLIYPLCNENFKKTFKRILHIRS
Chain of Muscarinic acetylcholine receptor M3 (Homo sapiens) (P20309 whole entry, looked up): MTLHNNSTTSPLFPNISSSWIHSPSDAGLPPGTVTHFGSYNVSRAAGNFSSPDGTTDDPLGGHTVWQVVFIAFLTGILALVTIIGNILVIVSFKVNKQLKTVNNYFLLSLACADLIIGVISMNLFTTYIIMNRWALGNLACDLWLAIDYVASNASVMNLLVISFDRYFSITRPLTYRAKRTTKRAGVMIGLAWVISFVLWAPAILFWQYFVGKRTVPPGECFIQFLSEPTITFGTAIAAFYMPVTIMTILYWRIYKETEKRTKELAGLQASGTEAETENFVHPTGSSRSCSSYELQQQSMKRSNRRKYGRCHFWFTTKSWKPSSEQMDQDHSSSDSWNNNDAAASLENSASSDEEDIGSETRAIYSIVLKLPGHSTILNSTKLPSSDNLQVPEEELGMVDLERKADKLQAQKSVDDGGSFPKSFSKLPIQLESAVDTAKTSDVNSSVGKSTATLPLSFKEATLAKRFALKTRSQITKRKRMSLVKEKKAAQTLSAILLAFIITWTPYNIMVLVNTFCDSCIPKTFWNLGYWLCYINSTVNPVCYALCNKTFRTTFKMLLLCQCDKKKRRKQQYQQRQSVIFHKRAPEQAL
Chain of Mu-type opioid receptor (P35372 whole entry): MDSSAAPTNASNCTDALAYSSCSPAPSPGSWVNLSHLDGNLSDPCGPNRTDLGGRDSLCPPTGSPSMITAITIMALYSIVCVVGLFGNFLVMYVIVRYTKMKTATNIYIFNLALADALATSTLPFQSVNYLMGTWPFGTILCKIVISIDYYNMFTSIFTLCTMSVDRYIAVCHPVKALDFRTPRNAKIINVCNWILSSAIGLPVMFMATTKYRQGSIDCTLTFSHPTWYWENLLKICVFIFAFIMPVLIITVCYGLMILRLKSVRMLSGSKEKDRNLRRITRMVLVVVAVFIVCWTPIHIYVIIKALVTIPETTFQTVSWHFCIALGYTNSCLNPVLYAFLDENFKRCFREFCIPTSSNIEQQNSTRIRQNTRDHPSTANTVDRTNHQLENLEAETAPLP
Chain of Alpha-2B adrenergic receptor (Homo sapiens) (P18089 whole entry): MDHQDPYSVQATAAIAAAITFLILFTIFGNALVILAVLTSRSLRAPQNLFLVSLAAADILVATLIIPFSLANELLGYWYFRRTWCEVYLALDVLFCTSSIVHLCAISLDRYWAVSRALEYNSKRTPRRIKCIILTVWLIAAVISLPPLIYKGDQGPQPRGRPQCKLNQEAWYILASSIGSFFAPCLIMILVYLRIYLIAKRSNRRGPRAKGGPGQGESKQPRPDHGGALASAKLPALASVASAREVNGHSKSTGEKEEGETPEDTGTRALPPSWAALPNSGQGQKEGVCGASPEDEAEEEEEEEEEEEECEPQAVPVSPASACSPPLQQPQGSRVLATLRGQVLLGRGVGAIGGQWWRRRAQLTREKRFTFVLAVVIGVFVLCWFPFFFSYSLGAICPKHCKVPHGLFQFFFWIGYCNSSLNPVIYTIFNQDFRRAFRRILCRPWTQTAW
Chain of Sigma intracellular receptor 2 (Q5BJF2 whole entry): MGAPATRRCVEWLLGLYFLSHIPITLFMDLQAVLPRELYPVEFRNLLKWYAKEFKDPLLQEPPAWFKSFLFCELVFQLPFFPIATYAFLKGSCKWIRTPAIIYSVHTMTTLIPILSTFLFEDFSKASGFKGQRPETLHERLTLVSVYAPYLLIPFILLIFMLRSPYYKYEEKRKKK
Chain of D(4) dopamine receptor (Homo sapiens) (P21917 whole entry): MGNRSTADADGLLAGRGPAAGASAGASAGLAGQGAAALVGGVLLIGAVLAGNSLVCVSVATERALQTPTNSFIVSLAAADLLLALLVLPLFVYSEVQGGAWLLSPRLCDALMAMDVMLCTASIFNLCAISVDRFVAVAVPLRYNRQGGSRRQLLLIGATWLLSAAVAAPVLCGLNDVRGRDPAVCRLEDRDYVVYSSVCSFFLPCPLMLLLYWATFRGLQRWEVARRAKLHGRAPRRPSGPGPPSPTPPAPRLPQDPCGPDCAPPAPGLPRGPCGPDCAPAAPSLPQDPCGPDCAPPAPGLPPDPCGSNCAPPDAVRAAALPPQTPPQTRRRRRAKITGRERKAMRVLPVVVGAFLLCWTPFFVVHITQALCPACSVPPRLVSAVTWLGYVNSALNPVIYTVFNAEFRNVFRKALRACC
Chain of Delta-type opioid receptor (Homo sapiens) (P41143 whole entry): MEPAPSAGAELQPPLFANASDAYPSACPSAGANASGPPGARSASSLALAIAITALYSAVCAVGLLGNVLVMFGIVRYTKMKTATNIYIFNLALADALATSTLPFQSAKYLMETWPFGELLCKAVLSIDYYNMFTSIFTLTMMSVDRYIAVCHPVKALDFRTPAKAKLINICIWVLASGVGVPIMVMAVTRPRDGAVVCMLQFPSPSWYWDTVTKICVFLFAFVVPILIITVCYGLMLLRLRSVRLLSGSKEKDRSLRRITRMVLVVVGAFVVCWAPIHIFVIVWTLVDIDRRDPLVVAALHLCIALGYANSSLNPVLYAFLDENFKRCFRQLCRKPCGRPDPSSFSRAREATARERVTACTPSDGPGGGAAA
Chain of Sodium-dependent noradrenaline transporter (Homo sapiens) (P23975 whole entry): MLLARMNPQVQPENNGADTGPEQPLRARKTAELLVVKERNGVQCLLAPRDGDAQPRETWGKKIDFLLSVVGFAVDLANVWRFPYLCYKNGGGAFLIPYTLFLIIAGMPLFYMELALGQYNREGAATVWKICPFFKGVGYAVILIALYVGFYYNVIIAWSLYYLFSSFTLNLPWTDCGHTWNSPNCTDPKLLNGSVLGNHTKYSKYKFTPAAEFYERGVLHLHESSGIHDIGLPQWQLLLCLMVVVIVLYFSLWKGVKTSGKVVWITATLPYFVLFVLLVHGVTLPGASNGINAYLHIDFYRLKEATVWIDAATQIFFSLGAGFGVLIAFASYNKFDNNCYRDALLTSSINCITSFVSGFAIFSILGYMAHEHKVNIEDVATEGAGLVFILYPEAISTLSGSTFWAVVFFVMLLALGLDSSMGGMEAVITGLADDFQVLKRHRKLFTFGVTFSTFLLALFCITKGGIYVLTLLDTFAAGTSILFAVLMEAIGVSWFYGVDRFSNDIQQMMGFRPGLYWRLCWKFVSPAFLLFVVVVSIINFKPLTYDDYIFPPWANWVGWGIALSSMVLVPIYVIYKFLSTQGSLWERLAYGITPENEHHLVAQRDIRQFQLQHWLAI
Chain of 5-hydroxytryptamine receptor 1B (P28222 whole entry): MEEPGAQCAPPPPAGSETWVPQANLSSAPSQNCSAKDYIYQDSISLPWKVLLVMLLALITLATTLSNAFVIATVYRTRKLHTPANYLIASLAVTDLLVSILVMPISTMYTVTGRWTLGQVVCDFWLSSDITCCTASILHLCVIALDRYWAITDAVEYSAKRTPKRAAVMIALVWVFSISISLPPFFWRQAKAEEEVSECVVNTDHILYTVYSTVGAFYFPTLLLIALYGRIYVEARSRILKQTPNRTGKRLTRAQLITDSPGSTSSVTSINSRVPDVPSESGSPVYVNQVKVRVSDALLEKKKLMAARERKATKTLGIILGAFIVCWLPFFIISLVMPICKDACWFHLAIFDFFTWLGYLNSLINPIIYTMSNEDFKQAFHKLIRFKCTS
Chain of Sodium-dependent dopamine transporter (Homo sapiens) (Q01959 whole entry): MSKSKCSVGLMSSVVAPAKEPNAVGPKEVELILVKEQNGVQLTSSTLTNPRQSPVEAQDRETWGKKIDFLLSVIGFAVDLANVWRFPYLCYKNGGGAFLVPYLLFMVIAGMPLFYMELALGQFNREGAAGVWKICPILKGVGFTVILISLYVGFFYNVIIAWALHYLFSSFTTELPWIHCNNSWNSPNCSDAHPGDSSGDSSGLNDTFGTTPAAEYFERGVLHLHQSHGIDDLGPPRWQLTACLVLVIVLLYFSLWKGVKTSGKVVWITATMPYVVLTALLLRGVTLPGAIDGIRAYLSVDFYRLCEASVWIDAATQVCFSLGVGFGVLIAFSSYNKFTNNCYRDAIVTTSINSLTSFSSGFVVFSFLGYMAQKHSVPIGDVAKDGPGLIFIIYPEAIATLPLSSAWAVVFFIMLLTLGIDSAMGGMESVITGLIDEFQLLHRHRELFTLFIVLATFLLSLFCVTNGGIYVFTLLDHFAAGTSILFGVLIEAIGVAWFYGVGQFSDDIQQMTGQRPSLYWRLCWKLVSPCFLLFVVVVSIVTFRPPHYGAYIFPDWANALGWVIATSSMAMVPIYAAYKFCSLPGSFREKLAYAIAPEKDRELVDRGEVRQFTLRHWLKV
Chain of Beta-2 adrenergic receptor (Homo sapiens) (P07550 whole entry, looked up): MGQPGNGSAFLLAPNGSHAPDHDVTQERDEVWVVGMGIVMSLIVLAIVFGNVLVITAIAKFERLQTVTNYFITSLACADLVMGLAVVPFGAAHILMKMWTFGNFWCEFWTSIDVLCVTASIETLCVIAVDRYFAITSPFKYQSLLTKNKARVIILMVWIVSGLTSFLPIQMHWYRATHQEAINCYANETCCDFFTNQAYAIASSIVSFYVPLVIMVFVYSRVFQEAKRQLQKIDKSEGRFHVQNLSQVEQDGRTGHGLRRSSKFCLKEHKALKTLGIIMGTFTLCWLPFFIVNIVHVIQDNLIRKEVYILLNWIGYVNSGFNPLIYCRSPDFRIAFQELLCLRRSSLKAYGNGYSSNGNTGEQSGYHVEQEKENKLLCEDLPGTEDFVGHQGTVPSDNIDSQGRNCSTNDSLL

inhibition [1]: 43.8%
inhibition [2]: 46.2%
inhibition [3]: 13.5%
inhibition [4]: 92.3%
inhibition [5]: 83%
inhibition [6]: 66.4%
inhibition [7]: 44.1%
inhibition [8]: 34.8%
inhibition [9]: 6.55%
inhibition [10]: 45.2%
inhibition [11]: 77.6%
IC50 [12]: > 10 µM (not active)
IC50 [13]: > 10 µM (not active)
inhibition [14]: 40.4%
inhibition [15]: 17.2%
inhibition [16]: 50.5%
inhibition (D(1A) dopamine receptor): 58.2%
inhibition (D(2) dopamine receptor): 57.5%
inhibition [17]: 50.5%
inhibition [18]: 83.2%
inhibition [19]: 31.9%
inhibition [20]: 26.3%
inhibition [21]: 0.99%
IC50 [22]: > 10 µM (not active)
inhibition [23]: 83.7%
IC50 [24]: > 10 µM (not active)
inhibition [25]: -0.51%
inhibition [26]: 90%
inhibition [27]: 4.08%
inhibition [28]: 28%
IC50 [29]: > 10 µM (not active)
inhibition [30]: 30.8%
inhibition [31]: 6.47%
inhibition [32]: 97.9%
inhibition [33]: 88.5%
inhibition [34]: 66.9%
inhibition [35]: 40.8%
inhibition [36]: 29.7%
inhibition (Mu-type opioid receptor): 55.7%
inhibition (D(3) dopamine receptor): 78.9%
IC50 [37]: > 10 µM (not active)
inhibition (Histamine H1 receptor [38]): 83%
inhibition [39]: 54.4%
Ki (Histamine H1 receptor [40]; read-out: Ki): 1.9 µM
Ki (Histamine H1 receptor [40]; read-out: pKi (converted)): 1.32 µM
SMILES: CN1CCN(C(=O)C(C)(C)c2ccc(C(=O)Nc3cn4cc(-c5cc(C(C)(C)C)cc(C(C)(C)C)c5)ccc4n3)cc2)CC1 [T3-CLK-N]

inhibition [1]: 16.6%
inhibition [2]: 4.05%
inhibition [3]: 7.47%
inhibition [4]: -2.63%
inhibition [5]: 12.4%
inhibition [6]: -5.18%
inhibition [7]: -7.63%
inhibition [8]: 9.12%
inhibition [9]: 3.82%
inhibition [10]: -5.21%
inhibition [11]: 19.3%
IC50 [12]: 0.00349 µM (active)
IC50 [13]: 0.668 µM (not active)
inhibition [14]: 21.1%
inhibition [15]: 16.6%
inhibition [16]: 5.95%
inhibition (D(1A) dopamine receptor): 4.41%
inhibition (D(2) dopamine receptor): 10.8%
inhibition [17]: 4.68%
inhibition [18]: 4%
inhibition [19]: 0.74%
inhibition [20]: -3.55%
inhibition [21]: 25.2%
IC50 [22]: 0.125 µM (not active)
inhibition [23]: 2.61%
IC50 [24]: 0.138 µM (not active)
inhibition [25]: 8.33%
inhibition [26]: 16.9%
inhibition [27]: -5.11%
inhibition [28]: -7.22%
IC50 [29]: 0.032 µM
inhibition [30]: 9.31%
inhibition [31]: 1.81%
inhibition [32]: 13.4%
inhibition [33]: 17.2%
inhibition [34]: 7.83%
inhibition [35]: 5.3%
inhibition [36]: -7.3%
inhibition (Mu-type opioid receptor): 5.33%
inhibition (D(3) dopamine receptor): 12.8%
IC50 [37]: 0.067 µM
inhibition (Histamine H1 receptor [38]): 54.9%
inhibition [39]: -6.32%
Ki (Histamine H1 receptor [40]; read-out: Ki): 2.15 µM
SMILES: CN1CCN(C(=O)C(C)(C)c2ccc(C(=O)Nc3cn4cc(-c5ccncc5)ccc4n3)cc2)CC1 [T3-CLK]

Source: ChEMBL document CHEMBL4507307 (2021)
